Assay results published in patent publication US20090023687A1, “Method for Controlling Phytopathogenic Organisms” (SYNGENTA CROP PROTECTION, INC., priority 2005, published 2009).
Where two headings read alike, the source gives them in different places.

Legend:
Assay type in all cases: in vivo
[1] = tested on: Phakopsora pachyrhizi; experiment: Leaf disc test with Phakopsora pachyrhizi on glyphosate sensitive soybean, leaf disks treated (Example 4)
Text: (§1) A synergistic effect exists whenever the action of an active ingredient combination is greater than the action expected from the effect of the individual components.
(§2) The action to be expected (E) for a given active ingredient combination obeys the so-called COLBY formula and can be calculated as follows (COLBY, S. R. “Calculating synergistic and antagonistic responses of herbicide combination”. Weeds, Vol. 15, pages 20-22; 1967):
(§3) ppm=milligrams of active ingredient (=a.i.) per litre of spray mixture X=% action by active ingredient I using p ppm of active ingredient Y=% action by active ingredient II using q ppm of active ingredient.
(§4) According to Colby, the expected (additive) action of active ingredients I+II using p+q ppm of active ingredient is
(§5) If the action actually observed (O) is greater than the expected action (E), then the action of the combination is superadditive, i.e. there is a synergistic effect.
(§6) A series of leaf disc tests were conducted to show the effects of tank mixtures of glyphosate and pesticides or plant activators on Asian soybean rust. The soybean variety tested was brand Williams82 glyphosate sensitive soybean. The leaf source for the testing was the first trifoliate leaf. Six (6) repetitions for each formulation and at each rate were conducted. Treatment of the leaf disks with the recited active ingredients was conducted 4 weeks after planting. The leaves were inoculated with Phakopsora pachyrhizi (Asian soybean rust (ASR)) one (1) day after treatment. Evaluation of the leaf was conducted ten (10) days after inoculation and the mean percent infestation of the six repetitions is reported in Tables 8-11.
As glyphosate source Touchdown® HiTech or Zapp® QI was used. The fungicides were used as commercial formulations: Bion® WG50 plant activator comprising acibenzolar-S-methyl (Syngenta Corp.), Opus® SC125 fungicide comprising epoxiconazole commercially (BASF AG), Tilt® EC250 fungicide comprising propiconazole (Syngenta Corp.), Quadris® SC250 fungicide comprising azoxystrobin (Syngenta Corp.). The rates of the active ingredients used in the tests are set in Tables 8-11 as mg active ingredient (a.i.)/L.

[2] = tested on: Phakopsora pachyrhizi; experiment: whole plant or invertebrate; details: in Glycine max, foliar, read-out: % activity observed
Text: as §1, §2, §3, §4, §5
as §6, with “the ortho-substituted phenyl-amide (OPA) fungicides represented by structures F-5 and F-9” for “pesticides or plant activators”, “leaf” for “leaf disks”, “3 and 4.” for “8-11.”
The glyphosate source was Touchdown® HiTech herbicide (Syngenta Corp.), containing the potassium salt of glyphosate and no adjuvant system. The compound OPA F-5 used was a compound of formula F-5, wherein the ratio of racemic compounds of formula F-3 (syn) to racemic compounds of formula F-4 (anti) was 9:1. The compound OPA F-9 used was a compound of formula F-9, wherein the ratio of racemic compounds of formula F-7 (trans) to racemic compounds of formula F-8 (cis) was around 100:1. The fungicides used were EC100 formulations of OPA F-5 and OPA F-9 which are emulsion concentrates containing 100 ga.i./L. The rates of the active ingredients used in the tests are set in the table as mg active ingredient (a.i.)/L.

[3] = tested on: Puccinia recondita; experiment: Greenhouse trial with Puccinia recondita on glyphosate sensitive wheat (Example 3); details: read-out: % activity observed
Text: as §1, §2, §3, §4, §5
Greenhouse tests were conducted to show the effects of tank mixtures of glyphosate and the ortho-substituted phenyl-amide (OPA) fungicides represented by structures F-10, F-5 and F-9 on cereal rust Puccinia recondita. The wheat variety tested was brand Kanzler glyphosate sensitive wheat. Three (3) repetitions for each formulation and at each rate were conducted. Treatment of the plants with the recited active ingredients was conducted preventatively 16 days after planting. The leaves were inoculated with Puccinia recondita one (1) day after treatment. Evaluation of the leaf was conducted […] after inoculation and the mean percent infestation of the three repetitions is reported in Tables 5-7.
The glyphosate source was Zapp® QI herbicide containing the potassium salt of glyphosate as well as an adjuvant system. The compound OPA F-5 used was a compound of formula F-5, wherein the ratio of racemic compounds of formula F-3 (syn) to racemic compounds of formula F-4 (anti) was 9:1. The compound OPA F-9 used was a compound of formula F-9, wherein the ratio of racemic compounds of formula F-7 (trans) to racemic compounds of formula F-8 (cis) was around 100:1. The fungicides used were EC 100 formulations of OPA F-10, OPA F-5 and OPA F-9 which are emulsion concentrates containing 100 ga.i./L. The rates of the active ingredients used in the tests are set in Tables 5-7 as mg active ingredient (a.i.)/L.

[4] = tested on: Phakopsora pachyrhizi; experiment: Application on whole plants: leaf disc test with Phakopsora pachyrhizi on glyphosate sensitive soybean (Example 5)
Text: as §1, §2, §3, §4, §5
(§7) A series of leaf disc tests were conducted to show the effects of tank mixtures of glyphosate and pesticides or plant activators on Asian soybean rust. The soybean variety tested was brand Williams82 glyphosate sensitive soybean. The leaf source for the testing was the first trifoliate leaf. Six (6) repetitions for each formulation and at each rate were conducted. Treatment of whole plants with the recited active ingredients was conducted 4 weeks after planting. After application, leaf disks were cut and inoculated with Phakopsora pachyrhizi (Asian soybean rust (ASR)) one (1) day after treatment. Evaluation of the leaf was conducted ten (10) days after inoculation and the mean percent infestation of the six repetitions is reported in Tables 12-14.
As glyphosate source Touchdown® HiTech or Zapp® QI was used. The fungicides were used as commercial formulations: Cantus® WG50 fungicide comprising boscalid (BASF AG), Quadris® SC250 fungicide and Bion® WG50 plant activator comprising acibenzolar-S-methyl. The rates of the active ingredients used in the tests are set in Tables 12-14 as g active ingredient (a.i.)/hectare (ha). The spray volume was 200 l/ha.

[5] = tested on: Phakopsora pachyrhizi; experiment: Application on whole plants: leaf disc test with Phakopsora pachyrhizi on glyphosate tolerant soybean (Example 6)
Text: as §1, §2, §3, §4, §5
as §7, with “Leaf” for “A series of leaf”, “S40-R9” for “Williams82”, “tolerant” for “sensitive”, “[…]” for “of whole plants with the recited active ingredients was conducted 4 weeks after planting. After”, “15-17.” for “12-14.”
As glyphosate source Touchdown® HiTech or Zapp® QI was used. The fungicides were used as commercial formulations: Bravo® SC500 fungicide comprising chlorothalonil (Syngenta Corp.), Score® EC250 fungicide comprising difenaconazole (Syngenta Corp.) and Mancozeb 80WP fungicide comprising mancozeb. The rates of the active ingredients used in the tests are set in Tables 15-17 as g active ingredient (a.i.)/hectare (ha). The spray volume was 200 l/ha.

[6] = Epoxiconazole Opus SC125 0.2 mg a.i./L
[7] = Acibenzolar Bion WG50 10 g a.i./ha
[8] = Acibenzolar Bion WG50 60 g a.i./ha
[9] = Acibenzolar Bion WG50 6.7 mg a.i./L
[10] = Acibenzolar Bion WG50 20 mg a.i./L
[11] = Azoxystrobin Quadris SC250 50 g a.i./ha
[12] = Azoxystrobin Quadris SC250 100 g a.i./ha
[13] = Azoxystrobin Quadris SC250 0.2 mg a.i./L
[14] = Azoxystrobin Quadris SC250 0.7 mg a.i./L
[15] = Boscalid Cantus WG50 250 g a.i./ha
[16] = Boscalid Cantus WG50 500 g a.i./ha
[17] = Chlorothalonil Bravo SC500 83.3 g a.i./ha
[18] = Chlorothalonil Bravo SC500 1500 g a.i./ha
[19] = Difenoconazole Score EC250 5 g a.i./ha
[20] = Difenoconazole Score EC250 15 g a.i./ha
[21] = Propiconazole Tilt EC250 0.7 mg a.i./L

Work on `Fc1ccc([C@]2(Cn3cncn3)O[C@H]2c2ccccc2Cl)cc1` (racemic) [Epoxiconazole, epoxiconazole] yielded an Activity observed % [1, 6] of 19% and a Leaf attack % [1, 6] of 62%.
`Cn1cc(C(=O)Nc2ccccc2C2CC2C2CC2)c(C(F)F)n1` (racemic) [OPA F-9] showed an inhibition at 0.2 µg/mL ([2]; OPA F-9 0.2 mg a.i./L) of 0%, an inhibition at 0.7 µg/mL ([2]; OPA F-9 0.7 mg a.i./L) of 0% and an inhibition at 2.2 µg/mL ([2]; OPA F-9 2.2 mg a.i./L) of 24%. It also gave an inhibition at 6.7 µg/mL ([2]; OPA F-9 6.7 mg a.i./L) of 74%, an inhibition at 20 µg/mL ([2]; OPA F-9 20 mg a.i./L) of 100% and an inhibition at 6.6 µg/mL ([3]; OPA F-9 6.6 mg a.i./L) of 81.9%.
`CSC(=O)c1cccc2nnsc12` [Acibenzolar, acibenzolar-S-methyl] showed an Activity observed % [4, 7] of 19%, a Leaf attack % [4, 7] of 50% and an Activity observed % [4, 8] of 31%. For the same molecule, the Leaf attack % [4, 8] was 43%, the Activity observed % [1, 9] was 0% and the Leaf attack % [1, 9] was 74%. The Activity observed % [1, 10] was 10% and the Leaf attack % [1, 10] was 62%.
`CO/C=C(/C(=O)OC)c1ccccc1Oc1cc(Oc2ccccc2C#N)ncn1` [Azoxystrobin, azoxystrobin] gave an Activity observed % [4, 11] of 0%, a Leaf attack % [4, 11] of 62% and an Activity observed % [4, 12] of 29%. It also gave a Leaf attack % [4, 12] of 44%, an Activity observed % [1, 13] of 15% and a Leaf attack % [1, 13] of 68%. It also gave an Activity observed % [1, 14] of 60% and a Leaf attack % [1, 14] of 32%.
`O=C(Nc1ccccc1-c1ccc(Cl)cc1)c1cccnc1Cl` [Boscalid, boscalid] was tested, and the Activity observed % [4, 15] was 7%, the Leaf attack % [4, 15] was 58% and the Activity observed % [4, 16] was 19%. The Leaf attack % [4, 16] was 50%.
With `N#Cc1c(Cl)c(Cl)c(Cl)c(C#N)c1Cl` [Chlorothalonil, chlorothalonil] the Activity observed % [5, 17] was 0%, the Leaf attack % [5, 17] was 80% and the Activity observed % [5, 18] was 17%. It also gave a Leaf attack % [5, 18] of 50%.
`CC1COC(Cn2cncn2)(c2ccc(Oc3ccc(Cl)cc3)cc2Cl)O1` (centres unmarked) [Difenoconazole, difenaconazole] was tested, and the Activity observed % [5, 19] was 0%, the Leaf attack % [5, 19] was 50% and the Activity observed % [5, 20] was 0%. For the same molecule, the Leaf attack % [5, 20] was 50%.
With `Cn1cc(C(=O)Nc2ccccc2-c2ccc(C#CC(C)(C)C)cc2)c(C(F)F)n1` [OPA F-10] the inhibition at 2.2 µg/mL ([3]; OPA F-10 2.2 mg a.i./L) was 0% and the inhibition at 6.6 µg/mL ([3]; OPA F-10 6.6 mg a.i./L) was 0%.
`CCCC1COC(Cn2cncn2)(c2ccc(Cl)cc2Cl)O1` (centres unmarked) [Propiconazole, propiconazole] showed an Activity observed % [1, 21] of 4% and a Leaf attack % [1, 21] of 74%.
Work on mancozeb yielded an Activity observed % ([5]; Mancozeb WP80 750 g a.i./ha) of 47%, a Leaf attack % ([5]; Mancozeb WP80 750 g a.i./ha) of 32% and an Activity observed % ([5]; Mancozeb WP80 1500 g a.i./ha) of 37%. For the same molecule, the Leaf attack % ([5]; Mancozeb WP80 1500 g a.i./ha) was 38%.
